# Legend:
# [1] = test system: Human melanoma (MEL 1106) cells; experiment: FTIR-SPR measurements of Tfn-induced SPR signal shifts in a cell monolayer on an Au-coated ZnS prism; type: cell-based; settings: for SPR signal shift on cell exposure to ligand: 5 μg/ml of Tfn, cells on Au-coated ZnS prism; for change in the average refraction index of cells Δn: calculated as Δn=ΔR/S at 4425 cm^−1
# Description: Surface plasmon (SP) was excited using Kretchmann's geometry as illustrated in FIG. 3A employing the Bruker FTIR spectrometer (Equinox 55—Bruker Optik GmbH, Ettlingen, Germany) equipped with a KBr beam splitter as mid-IR source, and a right-angle ZnS prism having a 20×40 mm base (ISP Optics, Inc., Irvington, N.Y, US) coated with an 18-nm-thick gold film (electron-beam evaporation). Cells were cultured on the gold surface, as described below. The prism and cells were attached to a flow chamber mounted on a goniometer, in such way that the cells on the gold-coated base faced the flow chamber's volume (0.5 ml). The flow chamber was filled with cell culture medium, resulting in direct contact between the medium and the gold layer, or cells cultured on that layer. The medium was passed through the chamber at a constant flow rate (5 μl/min) during the entire experiment, using a motorized bee syringe pump equipped with a variable speed controller. The temperature of the medium flowing through the chamber was controlled (±0.1° C.). The infrared light from the output window of the FTIR instrument passed through a collimator, consisting of a 1-mm diameter pinhole mounted between two gold coated off-axis parabolic mirrors, m1 and m2, with focal lengths of about 76.2 mm and 25.4 mm, respectively, along with a grid polarizer and an iris. The collimated beam (˜4 mm in diameter) was reflected from the ZnS prism and focused by an additional parabolic mirror, m3, onto a liquid-nitrogen-cooled MCT (HgCdTe) detector, mounted on the goniometer.
# Human melanoma (MEL 1106) cells were cultured on a 10-cm dish in Dolbecco's modified Eagle's medium (D-MEM, Biological Industries, Israel), supplemented with 4.5 g/l D-glucose, 10% antibiotics, and 10% fetal calf serum, as previously described for HeLa cells [Ziblat et al., 2006]. These cells were used in the SPR experiments, and their culture on Au coated prisms was performed as follows: upon reaching 70% confluence, cells were detached from the dish by trypsin C (0.05% Trypsin/EDTA in Puck's saline A; Biological Industries, Israel) treatment, and brought to a cell density of about 1.8×10^5 cells/ml in complete growth medium. With reference to FIG. 7, three milliliters of cell suspension 29 were seeded on top of the Au-coated ZnS prism 27 mounted onto a home-made polycarbonate holder, such that the cell suspension 29 covered the entire prism's base 28. Cells were allowed to attach for at least 3 hrs in a CO2 incubator (5% CO2, 37° C., 90% humidity). Thereafter, growth medium (5 ml) was added and the prism 27 was placed in a CO2 incubator for an additional 2-3 days, until a uniform and nearly confluent monolayer of cells (above 70%; ˜30 cells per 1000 μm^2) covered the Au-surface.
# In the initial phase of each experiment, cells cultured on an Au-coated prism were exposed to serum-free DMEM for 3 hours at […] for depleting the cells from internal pools of Tfn contributed by the serum. The prism with the cultured cells was then attached to the flow chamber, which was rapidly filled with pre-warmed (37° C.) minimal essential medium (MEM) containing Hank's salts (GIBCO), 20 mM Hepes, pH 7.2, and 5 μg/ml BSA (MEM-BSA). The temperature in the flow chamber was adjusted to 37° C.±0.1° C., unless otherwise indicated. Thereafter, the angle of incidence in the SPR configuration was set to θ=35.5°. […] These parameters were optimal, allowing maximal sensitivity (S=ΔR/Δn), and reasonable SP penetration depth/propagation length.
# The reflectivity of the s-polarized beam was used as a background for subsequent measurements. The SPR signal is the ratio of the reflectivities obtained for the p-polarized and s-polarized beams. The FTIR-SPR set-up of the invention repeatedly measured the reflectivity spectra. This was done every 25 seconds with a 4-cm^−1 wavenumber resolution and with 16-scan averaging. The SPR measurements were carried out continuously for 15-20 minutes, until a stable SPR signal was recorded. […]
# [2] = test system: Melanoma cells; experiment: Time-lapse confocal imaging of fluorescently tagged-Tfn uptake; type: cell-based, human
# Description: Melanoma cells were cultured to ˜50% confluence on glass bottom culture dishes (35 mm dish, 14 mm Microwell; MatTek, Co., MA, USA). Cells were first exposed to growth medium lacking serum for 3 hrs prior to the experiment, and then washed three times with internalization buffer (150 mM NaCl, 20 mM Hepes, pH 7.4, 1 mM CaCl2, 5 mM KCl, 1 mM MgCl2, 10 mM Glucose). Following the last wash, internalization buffer containing 0.1 μM sulforhodamine green (SRG) (Biotium, Hayward, Calif.) was added to the medium. Cells were imaged (FIG. 10A—confocal imaging of live cells performed simultaneously in the green and red channels, about 30 sec (designated time 0) after cell exposure to the ligand) with an Olympus FV-1000 confocal microscope equipped with an on-scope incubator (Life Image Services, Bazel, Switzerland), which controls temperature and humidity, and provides an atmosphere of 5% CO2. A 60×/NA=1.35 oil immersion objective was used. […] First, one plane of focus was acquired, and Rhodamine Red'-holo Tfn (5 μg/ml; Jackson ImmunoResearch) was introduced into the imaging buffer. Confocal images of both the SRG (Ex: 514 nm; Em: 535-565 nm) and Rhodamine Red-holo-Tfn (Ex: 543 nm; Em: 560-660 nm) were acquired from the same section every 10 or 20 sec. A similar protocol was used for Lissamine Rhodamine-apo-Tfn, except that the SRG was imaged using 488-nm excitation and a 505-525-nm emission filter. The FV1000 was equipped with the ZDC (Zero Drift Controller) option, to maintain the same focus plane throughout the entire period of imaging.
# The images were processed using ImageJ [Rasband, W. S., ImageJ, U.S. National Institutes of Health, Bethesda, Md., USA, http://rsb.info.nih.gov/ij/, 1997-2007] to determine fluorescence levels within cells as follows: First the despeckle filter (essentially a median filter with a 3×3 kernel) was applied to remove point noise and the SRG image was used to determine the cell boundaries; then, the average fluorescence intensity inside the cells (F(t)intracellular) was divided by the average fluorescence intensity in a region of interest outside the cells (<F(t)>extracellular). This procedure was adopted based on the assumption that there is insignificant depletion of labeled Tfn in the medium, so that the fluorescence in the medium should remain constant.
# Then, the fluorescence levels within the bounded area were determined in the red channels for each time frame. Background fluorescence levels measured before the addition of Rhodamine Red-Tfn were subtracted from values measured in the same channel during ligand introduction.
# [3] = test system: human red blood cells (RBCs); experiment: FTIR-SPR measurement of glucose uptake by erythrocyte suspension; type: cell-based; settings: λ=4 μm, 22° C., erythrocyte suspension in PBS
# Description: In the following section measurements of glucose uptake by erythrocyte suspension in the PBS medium are described. Briefly, fresh human red blood cells (RBCs) were washed four times in PBS by centrifugation. The supernatant and buffy coat cells were discarded and RBCs were resuspended in glucose-free PBS to yield ce=5% v/v. For complete glucose depletion, cells were incubated for 60 min at 22° C. in PBS. Then, RBCs were centrifuged and resuspended in fresh PBS containing the required concentrations of D-glucose supplemented with L-glucose, to keep the total glucose concentration (osmolarity) equal to 20 mM. The SPR measurements were performed at 22° C. to slow down cellular glycolysis. The measurements were performed using a ZnS prism coated with a 12-nm thick Au film. […] Although the sensitivity at this wavelength is low (FIG. 19A), the use of such a long wavelength here is mandatory in order to sense the processes inside erythrocytes. The average distance between the erythrocytes is Dece^1/3=17 μm. The surface plasmon propagation length, Lx=30 μm (FIG. 21), exceeds the distance between erythrocytes.
# [4] = test system: Melanoma 1106 cell; experiment: FTIR-SPR of ferrotransferrin uptake with long-wavelength surface plasmon; type: cell-based, human; settings: λ=2.54 μm
# From the text: The FTIR-SPR technique of the invention was applied to study transferrin-induced clathrin-mediated endocytic processes that introduce Fe ions into the cell.
# The same process was studied using a long-wavelength surface plasmon at λ=2.54 μm. Its penetration depth, δzd=1.2 μm (FIG. 20), is deep enough to penetrate the cells, although it senses mostly the cell periphery. […] The kinetics of the SPR reflectivity closely follows the fluorescence kinetics in the cell periphery (FIG. 27A), as expected. […] The obvious advantage of the SPR technique is that it is label-free. […] This rules out the possibility that the SPR shift results from accumulation of organic molecules in the cell (this would increase the refractive index). […] This is consistent with the biological picture of endocytosis that includes transferrin-induced vesicular transport.
# [5] = test system: HeLa cells; experiment: FTIR-SPR of cholesterol enrichment/depletion of the cell membrane; type: cell-based, human; settings: λ=1.08 μm, 37° C.; mβCD-chol at t=0, mβCD at t=15 for 3 min
# From the text: The penetration of cholesterol into the plasma membrane of the HeLa cells was studied with the FTIR-SPR technique of the invention (similar studies using SPR in the visible range were reported by Besenicar et al., [Biochimica et Biophysica Acta-Biomembranes, 177, 175 (2008).]. It is well-known that cholesterol enters mostly into the plasma membrane rather than into cytoplasm. Therefore, to achieve high sensitivity to membrane-related events, the near-infrared wavelength range was chosen, λsp=1÷1:08 μm, characterized by a relatively low SPR penetration depth.
# The HeLa cells were grown on an SF-11 glass prism coated with 35-nm-thick gold film. The prism with the cells was mounted into a flow chamber and was equilibrated in growth medium for 5-7 minutes at 37° C. Then 10 mM of mfβCD-chol (methyl-beta-cyclodextrin loaded with cholesterol) was added, which is known to enrich the cells by cholesterol. The FTIR-SPR spectra was measured before and after adding the drugs. […] This corresponds to a refractive index increase because cholesterol has a higher refractive index than water. In contrast, when a similar chemical, mβCD, which is not loaded with cholesterol, was added (at t=15 for 3 min) to a growth solution the SPR is blue-shifted, which corresponds to a refractive index decrease. […]
molecule,measurement,setting,value
"CN(C)CCCN1c2ccccc2Sc2ccc(Cl)cc21 [CPZ, Chlorpromazine, reference compound]",SPR signal shift immediately after cell exposure to the drug,"[1]; 100 μM CPZ in MEM/BSA, 37° C.",sizeable shift of the SPR signal towards shorter wavelengths
same,effect on holo-Tfn-induced SPR signal shifts,"[1]; 100 μM CPZ, then approximately 90 min washout, compared with untreated cells",diminished SPR signal shifts
same,blue shift in the SPR signal relative to that induced by Tfn,[1]; CPZ treatment per se,10 times
same,washout time after which a steady SPR signal was measured,[1]; CPZ washout with plain MEM/BSA,~30 min
same,SPR signal shift on removal (washout) with plain MEM/BSA,[1],ongoing decrease
same,effect on rate of holo-Tfn uptake into the cells (fluorescence),"[2]; CPZ treatment followed by 90 min of drug washout, 37° C.",significantly decreased the rate of holo-Tfn uptake
O=C[C@H](O)[C@@H](O)[C@H](O)[C@H](O)CO [D-glucose],reflectivity in the SPR regime upon addition,[3],"reflectivity in the SPR regime rapidly increases with time, until saturation is reached"
Rhodamine Red-holo-Tfn: Rhodamine Red tagged holo-Tfn (Jackson ImmunoResearch) used for fluorescence imaging [reference compound],ligand internalization rates (fluorescence),[2]; lower temperatures (30° C. vs 37° C.),reduced ligand internalization rates
apo-Tfn: Human apo-Tfn dialyzed against sodium citrate to remove possible iron traces; tagged with Lissamine Rhodamine for imaging,SPR signal shift on cell exposure to ligand,[1]; 37° C.,small SPR signal shifts
same,change in the average refraction index of cells Δn,[1],smaller than −1*10^−4
same,accumulation of tagged Tfn fluorescence within the cells,[2]; 37° C.,accumulated within the cells at slower rates
"holo-Tfn: Human apo-Tfn (transferrin) loaded with iron, which converts it to holo-Tfn",SPR signal shift on cell exposure to ligand,[1]; 37° C.,time-dependent shifts of the SPR minimum towards shorter wavelengths
same,Tfn-induced SPR shifts,[1]; 19° C.,diminished SPR shifts
same,Tfn-induced SPR shifts,[1]; 30° C.,larger SPR shifts
same,Tfn-induced SPR shifts,[1]; 37° C.,maximal shifts
same,change in the average refraction index of cells Δn,[1],−4*10^−4
same,time over which the SPR signal increased before levelling off,"[1]; holo-Tfn, 37° C.",2 to 3 min
same,SPR signal shift on removal (washout) with plain MEM/BSA,[1],red-shift in the SPR signal
same,cell fluorescence intensity over time,"[2]; holo-Ft tagged with Rhodamine Red, Melanoma 1106 cell",fluorescence intensity increases and then achieves saturation
same,SPR shift upon introduction into the solution,[4],blue-shifted
"methyl-β-cyclodextrin [mβCD, reference compound]",effect on holo-Tfn-induced SPR signal shift (cholesterol depletion / replenishment),"[1]; mβCD 3 mM for 15 min at 37° C., rinsed, then holo-Tfn",diminished compared with untreated cells
same,SPR shift after addition to growth medium,[5],blue-shifted

# From patent US20110188043A1, “METHOD AND APPARATUS FOR MONITORING PROCESSES IN LIVING CELLS” (Yissum, Research Development Company of The Hebrew …, priority 2007, published 2011)
